Test results reported in article PMC11241255 (International Journal of Molecular Sciences, 2024).

Tests used:
[1] = system: SH-SY5Y cells; experiment: Mitochondrial membrane potential (ΔΨm) assay (TMRE); assay type: cell-based, Human; settings: 12 h pre-treatment, 200 μM H2O2 2 h
Protocol: Human neuroblastoma SH-SY5Y cells (ATCC CRL-2266, Manassas, VA, USA) were maintained in Dulbecco’s modified Eagle’s medium (DMEM, Gibco) supplemented with 10% fetal bovine serum (FBS), 1% kanamycin, and 1% penicillin (Thermo Fisher Scientific, Waltham, MA, USA) at 37 °C with 5% CO2, and a 95% humidified atmosphere in the incubator. The experiments were executed at 80–90% cell confluency.
The mitochondrial membrane potential was measured using the tetramethylrhodamine, methyl ester (TMRE) staining method. The cells (1 × 10^4 cells/well) were seeded in a 96-well sterile plate; after which, they were pre-treated with the extract for 12 h. The extracts and phytocompounds were removed, followed by a 2 h treatment with H2O2 (200 μM). A 1 μM amount of TMRE was added to the cells and incubated for 1 h at 37 °C. The fluorescence was assessed (Ex 549 nm, Ems 575 nm) using a microplate reader (Synergy-H1 BioTek, Agilent, USA). The ΔΨm was calculated as a percentage of the untreated control cells (100%) in triplicate measurements.

[2] = system: AChE; settings: cited from earlier work
[3] = cited from earlier work

C=C(C)[C@H]1CC=C(C)C(=O)C1 [carvone, D-carvone]
MMP (% ΔΨm vs untreated cells) ([1]; 0.1 µg/mL): 71.61 ± 0.70% | MMP (% ΔΨm vs untreated cells) ([1]; 1 µg/mL): 80.80 ± 1.20% | MMP (% ΔΨm vs untreated cells) ([1]; 10 µg/mL): 85.18 ± 4.96% | MMP (% ΔΨm vs untreated cells) ([1]; 30 µg/mL): 87.19 ± 6.26% | AChE inhibition ([2]; at 1 mg/mL): 23.6% | AChE IC50 [2]: 835.2 µg/mL | IC50 [2]: 5.56 mM | Ki ([2]; ref Grundy et al. 51): 680 µM | BBB permeability [3]: can cross BBB
